{"source": "the NIST ThermoML archive (doi:10.1016/j.jct.2005.10.013)", "experiment": "mn = molality of the nth substance listed, in mol/kg", "conditions": "101 kPa, Liquid, Sing-around technique in a fixed-path interferometer", "note": "± gives the expanded uncertainty stated by the source.", "data": [{"smiles": "CN(CCO)CCO", "note": "[N-methyldiethanolamine] + O", "values": [{"measurement": "speed of sound", "setting": "283.15 K, m1 = 0.3067", "result": "1474.2 ± 0.99", "unit": "m/s"}, {"measurement": "speed of sound", "setting": "283.15 K, m1 = 0.5017", "result": "1489.7 ± 1", "unit": "m/s"}, {"measurement": "speed of sound", "setting": "283.15 K, m1 = 0.7035", "result": "1505.1 ± 1", "unit": "m/s"}, {"measurement": "speed of sound", "setting": "283.15 K, m1 = 0.8982", "result": "1519.3 ± 1", "unit": "m/s"}, {"measurement": "speed of sound", "setting": "283.15 K, m1 = 1.088", "result": "1532.8 ± 1", "unit": "m/s"}, {"measurement": "speed of sound", "setting": "283.15 K, m1 = 1.357", "result": "1550.9 ± 1", "unit": "m/s"}, {"measurement": "speed of sound", "setting": "283.15 K, m1 = 1.652", "result": "1569.5 ± 1.1", "unit": "m/s"}, {"measurement": "speed of sound", "setting": "283.15 K, m1 = 2.161", "result": "1598.7 ± 1.1", "unit": "m/s"}, {"measurement": "speed of sound", "setting": "298.15 K, m1 = 0.3067", "result": "1520 ± 0.99", "unit": "m/s"}, {"measurement": "speed of sound", "setting": "298.15 K, m1 = 0.5017", "result": "1532.9 ± 1", "unit": "m/s"}, {"measurement": "speed of sound", "setting": "298.15 K, m1 = 0.7035", "result": "1545.8 ± 1", "unit": "m/s"}, {"measurement": "speed of sound", "setting": "298.15 K, m1 = 0.8982", "result": "1557.6 ± 1", "unit": "m/s"}, {"measurement": "speed of sound", "setting": "298.15 K, m1 = 1.088", "result": "1568.7 ± 1", "unit": "m/s"}, {"measurement": "speed of sound", "setting": "298.15 K, m1 = 1.357", "result": "1583.6 ± 1", "unit": "m/s"}, {"measurement": "speed of sound", "setting": "298.15 K, m1 = 1.652", "result": "1598.9 ± 1.1", "unit": "m/s"}, {"measurement": "speed of sound", "setting": "298.15 K, m1 = 2.161", "result": "1622.6 ± 1.1", "unit": "m/s"}, {"measurement": "speed of sound", "setting": "313.15 K, m1 = 0.3067", "result": "1547.7 ± 0.99", "unit": "m/s"}, {"measurement": "speed of sound", "setting": "313.15 K, m1 = 0.5017", "result": "1557.7 ± 1", "unit": "m/s"}, {"measurement": "speed of sound", "setting": "313.15 K, m1 = 0.7035", "result": "1567.7 ± 1", "unit": "m/s"}, {"measurement": "speed of sound", "setting": "313.15 K, m1 = 0.8982", "result": "1576.9 ± 1", "unit": "m/s"}, {"measurement": "speed of sound", "setting": "313.15 K, m1 = 1.088", "result": "1585.5 ± 1", "unit": "m/s"}, {"measurement": "speed of sound", "setting": "313.15 K, m1 = 1.357", "result": "1597 ± 1", "unit": "m/s"}, {"measurement": "speed of sound", "setting": "313.15 K, m1 = 1.652", "result": "1608.8 ± 1.1", "unit": "m/s"}, {"measurement": "speed of sound", "setting": "313.15 K, m1 = 2.161", "result": "1626.9 ± 1.1", "unit": "m/s"}]}]}
